Results as given in US20260317370A1, “METHOD OF DEPROTECTING AT LEAST ONE D-AMINO ACID AND/OR D-AMINO ACID DERIVATIVE PROTECTED FUNCTIONAL GROUP” (Martin-Luther-Universität Halle-Wittenberg, priority 2023, published 2026).
Structures can show the parent of a compound that is named as a salt.

How the values were obtained:
Assay in all cases: additive influence on activity of D-stereospecific hydrolytic enzyme
Assay type in all cases: biochemical
Details in all cases: role: inhibitor (additive); substrate Abz-AAfFAAK(DNP)-OH
[1] = target: T1, D-stereospecific hydrolytic enzyme, SEQ ID No. 8 (Bacillus thuringiensis, UniProt A0A1W6WYC6)
T1 construct: E. coli, purified
T1 sequence (A0A1W6WYC6 40-389): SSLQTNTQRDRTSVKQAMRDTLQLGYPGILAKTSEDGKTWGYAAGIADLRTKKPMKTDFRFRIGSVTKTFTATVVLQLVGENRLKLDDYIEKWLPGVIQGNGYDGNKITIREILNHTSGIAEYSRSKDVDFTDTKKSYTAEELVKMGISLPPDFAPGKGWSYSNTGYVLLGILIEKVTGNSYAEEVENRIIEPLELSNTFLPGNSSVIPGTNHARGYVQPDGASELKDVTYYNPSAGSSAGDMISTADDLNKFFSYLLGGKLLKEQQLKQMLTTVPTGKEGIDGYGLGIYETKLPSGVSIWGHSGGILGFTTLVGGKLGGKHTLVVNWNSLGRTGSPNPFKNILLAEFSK
Experimental: (§1) In further experiments, the hydrolysis reaction using D-stereospecific hydrolytic enzymes with SEQ ID No. 4, No. 6, No. 7, No. 8, No. 9 was carried out with internally quenched fluorogenic substrates (IQFS) (Abz-AAX/xaaFAAK(DNP)-OH) (Abz=2-aminobenzoic acid, DNP=2,4-dinitrophenol). By cleavage of the IQFS, a fluorescence signal is released and can be monitored by continuous fluorescence measurement (0.1 M NaPi, pH 8.0, 1% DMSO (v/v), 5-1000 nM enzyme, excitation wavelength 320 nm emission wavelength 420 nm, reaction volume 100 μl, 96-well micro titer plate, time scale 2 h). The respective model reaction is shown below (Formula 5). In Formula 5 DHy represents the respective D-stereospecific hydrolytic enzyme.
(§2) In addition, experiments were performed to investigate the effect of adding different additives in different concentrations based on the reaction mixture on the activity of D-stereospecific hydrolytic enzymes. The concentration of the respective additive was varied between 0 to 2.5 M. As additives, urea, guanidinium hydrochloride, NaCl and ß-mercaptoethanol (ß-ME) were used. The additives were added to the reaction mixture including the D-stereospecific hydrolytic enzyme and the peptide Abz-AAfFAAK(DNP)-OH. As D-stereospecific hydrolytic enzymes the D-stereospecific hydrolytic enzymes with SEQ ID No. 4, No. 6, No. 7, No. 8 and No. 9 were used.
(§3) The relative activity, in this case, is calculated by dividing the activity when adding an additive with a different concentration by the maximum activity of the respective D-stereospecific enzyme.
(§4) In Table 11, the concentration of additive (M) based on the reaction mixture at which 50% (*) or 10% (**) of the relative specific activity of the respective enzyme is still present is indicated.

[2] = target: T2, D-stereospecific hydrolytic enzyme, SEQ ID No. 7 (Bacillus thuringiensis, UniProt A0A1W6WPK6)
T2 construct: E. coli, purified
T2 sequence (A0A1W6WPK6 41-389): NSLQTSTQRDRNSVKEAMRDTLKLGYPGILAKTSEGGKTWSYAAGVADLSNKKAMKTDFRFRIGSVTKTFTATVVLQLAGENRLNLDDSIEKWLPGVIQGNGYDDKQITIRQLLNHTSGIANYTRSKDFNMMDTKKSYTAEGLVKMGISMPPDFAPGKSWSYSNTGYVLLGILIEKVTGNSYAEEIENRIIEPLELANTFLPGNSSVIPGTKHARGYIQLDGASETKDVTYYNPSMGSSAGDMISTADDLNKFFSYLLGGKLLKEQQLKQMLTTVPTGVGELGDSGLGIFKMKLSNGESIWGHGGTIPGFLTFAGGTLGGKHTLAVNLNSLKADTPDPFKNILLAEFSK
Experimental: as §1, §2, §3, §4

[3] = target: T3, D-stereospecific hydrolytic enzyme, SEQ ID No. 6 (Bacillus thuringiensis, UniProt A0A1W6WPG2)
T3 construct: E. coli, purified; crystallized, P21
T3 sequence (A0A1W6WPG2 40-385): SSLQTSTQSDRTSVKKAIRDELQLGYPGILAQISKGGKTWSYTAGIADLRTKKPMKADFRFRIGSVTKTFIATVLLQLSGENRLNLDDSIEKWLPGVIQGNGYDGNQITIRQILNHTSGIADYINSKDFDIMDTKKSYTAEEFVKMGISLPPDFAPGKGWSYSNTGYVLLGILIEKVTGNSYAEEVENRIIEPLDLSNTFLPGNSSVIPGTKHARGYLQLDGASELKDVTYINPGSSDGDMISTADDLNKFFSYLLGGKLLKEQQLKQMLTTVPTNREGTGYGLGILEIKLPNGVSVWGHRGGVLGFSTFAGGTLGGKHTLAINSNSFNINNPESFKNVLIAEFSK
Experimental: as §1, §2, §3, §4

[4] = target: T4, D-stereospecific hydrolytic enzyme, SEQ ID No. 9 (Bacillus thuringiensis, UniProt A0A1W6WP87)
T4 construct: E. coli, purified
T4 sequence (A0A1W6WP87 38-388): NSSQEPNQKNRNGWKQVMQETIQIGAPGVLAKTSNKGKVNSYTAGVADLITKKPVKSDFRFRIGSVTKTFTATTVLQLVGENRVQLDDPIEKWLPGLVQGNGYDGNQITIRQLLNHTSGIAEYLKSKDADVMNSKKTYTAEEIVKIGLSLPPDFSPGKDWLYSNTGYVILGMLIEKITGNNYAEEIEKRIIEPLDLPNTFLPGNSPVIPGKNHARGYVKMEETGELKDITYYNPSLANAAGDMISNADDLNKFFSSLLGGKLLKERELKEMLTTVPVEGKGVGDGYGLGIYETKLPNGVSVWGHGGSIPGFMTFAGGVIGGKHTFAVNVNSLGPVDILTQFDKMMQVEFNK
Experimental: as §1, §2, §3, §4

[5] = target: T5, D-stereospecific hydrolytic enzyme, SEQ ID No. 4 (Bacillus cereus, UniProt P94288)
T5 construct: initiator Met form is 4A; E. coli, purified by ion exchange and gel filtration
Experimental: as §1, §2, §3, §4

T5 sequence (P94288 entry or part of it): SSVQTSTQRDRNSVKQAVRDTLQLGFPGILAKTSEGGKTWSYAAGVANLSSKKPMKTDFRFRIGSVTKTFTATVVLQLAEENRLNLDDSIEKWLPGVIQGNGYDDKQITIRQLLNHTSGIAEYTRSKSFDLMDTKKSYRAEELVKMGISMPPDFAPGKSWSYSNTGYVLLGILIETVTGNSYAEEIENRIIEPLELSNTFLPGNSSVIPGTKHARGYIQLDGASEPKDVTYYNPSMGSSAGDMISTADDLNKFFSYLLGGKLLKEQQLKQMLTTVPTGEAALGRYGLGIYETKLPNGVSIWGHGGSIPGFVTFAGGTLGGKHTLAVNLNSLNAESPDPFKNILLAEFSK

| Structure (SMILES) | concentration of additive at which 10% of the relative specific activity is still present [1] [M] | concentration of additive at which 10% of the relative specific activity is still present [2] [M] | concentration of additive at which 10% of the relative specific activity is still present [3] [M] | concentration of additive at which 10% of the relative specific activity is still present [4] [M] | concentration of additive at which 10% of the relative specific activity is still present [5] [M] |
| --- | --- | --- | --- | --- | --- |
| N=C(N)N [GdmCl, guanidinium hydrochloride] | 1.00 | 0.50 | 0.50 | 1.25 | 1.00 |
| NC(N)=O [urea] | 2.00 | 1.50 | 2.00 | 2.25 | 1.25 |
| OCCS [β-ME, ß-mercaptoethanol] | 0.50 | 0.50 | 0.50 | 0.50 | <0.25 |
